Measured values taken from PMC4604124, “In Vitro Characterization of the Pharmacological Properties of the Anti-Cancer Chelator, Bp4eT, and Its Phase I Metabolites” (PLoS ONE, 2015).
“And” between values parts separate entries of the source, which are not always exact repeats. Equal entries are not always repeated.

Columns and labels:
[1] = system: LC3-II; assay: Western blot and densitometry of LC3-I/II (autophagy); assay type: cell-based, human; details: for LC3-II levels compared to the control: agent alone; for densitometry WB, relative to NT = 1: single blot
Description: Established protocols were used to prepare cell lysates and perform immunoblot analysis. Primary antibodies used include: rabbit LC3 (Cat. #: MBPM036; 1:2,000) from Abacus (Brisbane, Australia) and mouse β-actin (Cat. #: A1978, 1:10,000) from Sigma-Aldrich. The following secondary antibodies were utilized: horseradish peroxidase (HRP)-conjugated anti-rabbit (Cat. #: A6154, […]) and anti-mouse (Cat. #: A4416, 1:10,000) antibodies from Sigma-Aldrich. To ensure equal loading of proteins, membranes were probed for β-actin.

[2] = Ascorbate oxidation assay (redox activity of iron complexes); assay type: biochemical; details: for %Fe 30min: ascorbate oxidation as % of the Fe control (Fe 100%): IBE 0.1, 30 min;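 on %Fe 30min (ascorbate oxidation, Fe 100%), průměr: IBE 3 means excess free chelator over iron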;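 on %Fe 30min (ascorbate oxidation, Fe 100%): IBE 3 means excess free chelator over iron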;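 on %Fe 30min: ascorbate oxidation as % of the Fe control (Fe 100%): IBE 0.1 means iron-binding equivalents with iron in excess over chelator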;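 on Change of absorbance, odečet 0 (time 0 subtracted), čas 10, průměr: IBE 3 means excess free chelator over 10 µM FeCl3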;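 on Change of absorbance, odečet 0 (time 0 subtracted), čas 10: IBE 3 means excess free chelator over 10 µM FeCl3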
Procedure: The ascorbate oxidation assay was used to assess the redox activity of the iron complexes of the chelators using an established protocol. In brief, 100 μM ascorbic acid was prepared immediately prior to the experiment and incubated either alone or in the presence of 10 μM FeCl3 in a 50-fold molar excess (500 μM) of citrate and the chelators. Chelators were assayed at iron-binding equivalents (IBE) of 0.1 (excess of iron), 1 (fully coordinated iron—chelator complexes) and 3 (excess of free chelator). […] The decrease of absorbance between the two time points was calculated and expressed as a percentage of control without the chelator.

[3] = 72 h/37°C, MCF-7, Bp4eT 10 and 100 nM, Dp44mT 100 nM, Baf A1 100 nM
[4] = Supplementary Fig 2, Baf+ NT (Baf alone)
[5] = Supplementary Fig 2, Baf+, 10nM
[6] = Supplementary Fig 2, Baf+, 5uM (5M [sic] for Bp4eT)
[7] = sheet IBE 1, time 10, replicates
[8] = sheet IBE 1, time 20, replicates
[9] = sheet IBE 1, time 30, replicates

## CO/C1=C\C(C)=C\[C@@H](C)[C@@H](O)[C@@H](C)C/C(C)=C/C=C/[C@H](OC)[C@@H]([C@@H](C)[C@@H](O)[C@H](C)[C@@]2(O)C[C@@H](O)[C@H](C)[C@@H](C(C)C)O2)OC1=O [Baf A1, Bafilomycin A1, reference compound]
[1]; [3]
  LC3-II levels compared to the control: marked and significant (p < 0.001) increase

## CO/C1=C\C(C)=C\[C@@H](C)[C@@H](O)[C@@H](C)C/C(C)=C/C=C/[C@H](OC)[C@@H]([C@@H](C)[C@@H](O)[C@H](C)[C@@]2(O)C[C@@H](O)[C@H](C)[C@@H](C(C)C)O2)OC1=O [Baf]
[1]; Fig 7E, Baf alone
  densitometry WB, relative to NT = 1, Average: 452.435
  densitometry WB, relative to NT = 1: 493.767 and 401.641 and 461.896
[1]; [4]
  densitometry WB, relative to NT = 1, Average: 120.681
  densitometry WB, relative to NT = 1: 125.194 and 89.4619 and 147.387

## CN(C)C(=S)NN=C(c1ccccn1)c1ccccn1 [Dp44mT, di-2-pyridylketone 4,4-dimethyl-3-thiosemicarbazone, reference compound]
[1]; 24 h/37°C, MCF-7, agent 5 μM, Baf A1 100 nM
  LC3-II with Baf A1 relative to Baf A1 and control: significant (p < 0.05) increase
[1]; 24 h/37°C, MCF-7, agent 10 and 100 nM, Baf A1 100 nM
  LC3II expression with Baf A1 relative to Baf A1 and control: did not lead to a significant (p > 0.05) increase
[1]; 72 h/37°C, MCF-7, Baf A1 100 nM, Bp4eT 10 and 100 nM, Dp44mT 100 nM
  LC3-II levels upon co-incubation with Baf A1, compared to Baf A1 alone: significant (p < 0.001–0.05) suppression
[1]; Fig 7E, 100nM
  densitometry WB, relative to NT = 1, Average: 4.573
[1]; Supplementary Fig 2, 10nM
  densitometry WB, relative to NT = 1, Average: 1.013
[1]; Supplementary Fig 2, 100nM
  densitometry WB, relative to NT = 1, Average: 0.7153
[1]; Supplementary Fig 2, 5uM (5M [sic] for Bp4eT)
  densitometry WB, relative to NT = 1, Average: 2.9502
[1]; [5]
  densitometry WB, relative to NT = 1, Average: 97.312
  densitometry WB, relative to NT = 1: 76.4364 and 79.3437 and 136.156
[1]; Supplementary Fig 2, Baf+, 100nM
  densitometry WB, relative to NT = 1, Average: 73.568
[1]; [6]
  densitometry WB, relative to NT = 1, Average: 249.127
  densitometry WB, relative to NT = 1: 275.571 and 204.438 and 267.371
[1]; [3]
  LC3-II levels compared to the control: slight, but significant (p < 0.05) increase

## O=C(O)CN(CCN(CC(=O)O)CC(=O)O)CC(=O)O [EDTA, reference compound]
[2]; IBE 0.1
  Ascorbate oxidation, % of the control: 161%
[2]; mean (průměr)
  %Fe 30min: ascorbate oxidation as % of the Fe control (Fe 100%): 160.9%
[2]; single wells
  %Fe 30min: ascorbate oxidation as % of the Fe control (Fe 100%): 159.4% and 155.2% and 146.4% and 180.8% and 176.8% and 168.8%
[2]; IBE 0.1, time 10, mean (průměr)
  Change of absorbance after subtraction of time 0 (odečet 0): -0.05129
[2]; IBE 0.1, time 20, mean (průměr)
  Change of absorbance after subtraction of time 0 (odečet 0): -0.1014
[2]; IBE 0.1, time 30, mean (průměr)
  Change of absorbance after subtraction of time 0 (odečet 0): -0.1524
[2]; IBE 0.1, čas 0 (time 0), mean (průměr)
  Absorbance (ascorbate, λ = 265 nm): 0.8103
[2]; IBE 0.1, čas 0 (time 0), single wells
  Absorbance (ascorbate, λ = 265 nm): 0.8054 and 0.8016 and 0.8149 and 0.8186 and 0.808 and 0.8024
[2]; IBE 0.1, čas 10 (time 10), mean (průměr)
  Absorbance (ascorbate, λ = 265 nm): 0.759
[2]; IBE 0.1, čas 10 (time 10), single wells
  Absorbance (ascorbate, λ = 265 nm): 0.7602 and 0.7682 and 0.7617 and 0.7478 and 0.7502 and 0.7523
[2]; IBE 0.1, čas 20 (time 20), mean (průměr)
  Absorbance (ascorbate, λ = 265 nm): 0.7088
[2]; IBE 0.1, čas 20 (time 20), single wells
  Absorbance (ascorbate, λ = 265 nm): 0.708 and 0.7209 and 0.713 and 0.6947 and 0.6986 and 0.7025
[2]; IBE 0.1, čas 30 (time 30), mean (průměr)
  Absorbance (ascorbate, λ = 265 nm): 0.6579
[2]; IBE 0.1, čas 30 (time 30), single wells
  Absorbance (ascorbate, λ = 265 nm): 0.6595 and 0.6673 and 0.6654 and 0.6401 and 0.6465 and 0.65
[2]; IBE 1
  Ascorbate oxidation, % of the control: 417%
[2]; IBE 3
  Ascorbate oxidation, % of the control: 427%
[2]; sheet IBE 1, 30min, Fe 100%, mean
  %Fe 30min (ascorbate oxidation, Fe = 100%), průměr (mean): 416.7%
[2]; sheet IBE 1, 30min, Fe 100%, replicates
  %Fe 30min (ascorbate oxidation, Fe = 100%), single replicates: 441% and 427.1% and 415.6% and 401.4% and 393.2% and 387.9%
[2]; sheet IBE 1, time 0, mean of 9 readings
  raw reading at čas 0 (time 0), průměr (mean): 0.6818
[2]; sheet IBE 1, time 0, replicates of 2014-03-24 (two runs) and 2014-03-25
  raw reading at čas 0 (time 0), single replicates: 0.698 and 0.6881 and 0.6774 and 0.6781 and 0.6723 and 0.6948
[2]; sheet IBE 1, time 10, mean
  odečet 0 (reading minus time 0 reading) at čas 10, průměr (mean): -0.1456
[2]; sheet IBE 1, time 10, mean of 9 readings
  raw reading at čas 10 (time 10), průměr (mean): 0.5362
[2]; [7]
  odečet 0 (reading minus time 0 reading) at čas 10, single replicates: -0.1492 and -0.1466 and -0.1396 and -0.1522 and -0.1449 and -0.1427
  raw reading at čas 10 (time 10), single replicates: 0.5282 and 0.5314 and 0.5326 and 0.5426 and 0.5531 and 0.5454
[2]; sheet IBE 1, time 20, mean
  odečet 0 (reading minus time 0 reading) at čas 20, průměr (mean): -0.2713
[2]; sheet IBE 1, time 20, mean of 9 readings
  raw reading at čas 20 (time 20), průměr (mean): 0.4105
[2]; [8]
  odečet 0 (reading minus time 0 reading) at čas 20, single replicates: -0.2803 and -0.2685 and -0.2607 and -0.2802 and -0.2739 and -0.2684
  raw reading at čas 20 (time 20), single replicates: 0.3971 and 0.4095 and 0.4115 and 0.4146 and 0.424 and 0.4197
[2]; sheet IBE 1, time 30, mean
  odečet 0 (reading minus time 0 reading) at čas 30, průměr (mean): -0.3705
[2]; sheet IBE 1, time 30, mean of 9 readings
  raw reading at čas 30 (time 30), průměr (mean): 0.3114
[2]; [9]
  odečet 0 (reading minus time 0 reading) at čas 30, single replicates: -0.381 and -0.369 and -0.359 and -0.3788 and -0.3711 and -0.366
  raw reading at čas 30 (time 30), single replicates: 0.2963 and 0.3091 and 0.3132 and 0.316 and 0.3269 and 0.322
[2]; sheet IBE 3, 30min, Fe alone = 100%, mean (průměr) of the 9 replicates
  %Fe 30min (ascorbate oxidation, Fe 100%), průměr: 426.7%
[2]; sheet IBE 3, 30min, Fe alone = 100%, single replicates
  %Fe 30min (ascorbate oxidation, Fe 100%): 442% and 427.3% and 421.9% and 434.5% and 414.3% and 409.1%
[2]; sheet IBE 3, time 10 minus time 0, mean (průměr)
  Change of absorbance, odečet 0 (time 0 subtracted), čas 10, průměr: -0.1585
[2]; sheet IBE 3, time 10 minus time 0, single replicates
  Change of absorbance, odečet 0 (time 0 subtracted), čas 10: -0.1642 and -0.1578 and -0.1558 and -0.1617 and -0.1557 and -0.1533
[2]; sheet IBE 3, time 20 minus time 0, mean (průměr)
  Change of absorbance, odečet 0 (time 0 subtracted), čas 20, průměr: -0.2896
[2]; sheet IBE 3, time 20 minus time 0, single replicates
  Change of absorbance, odečet 0 (time 0 subtracted), čas 20: -0.3027 and -0.2894 and -0.2865 and -0.2919 and -0.2818 and -0.2751
[2]; sheet IBE 3, time 30 minus time 0, mean (průměr)
  Change of absorbance, odečet 0 (time 0 subtracted), čas 30, průměr: -0.3943
[2]; sheet IBE 3, time 30 minus time 0, single replicates
  Change of absorbance, odečet 0 (time 0 subtracted), čas 30: -0.4103 and -0.3966 and -0.3916 and -0.3977 and -0.3792 and -0.3744
